Laboratory results published in article PMC8387444 (Bioorganic chemistry, 2021).

Columns and labels:
human CRFR1 [1] = biological target: T1, human CRFR1 (Homo sapiens, UniProt P34998); type: binding; settings: for inhibition at 0.5 µM: read-out: Inhibition of [125I]-Tyr0-sauvagine specific binding; for Binding affinity fold lower than that of antalarmin: relative to antalarmin
T1 sequence (P34998 24-415): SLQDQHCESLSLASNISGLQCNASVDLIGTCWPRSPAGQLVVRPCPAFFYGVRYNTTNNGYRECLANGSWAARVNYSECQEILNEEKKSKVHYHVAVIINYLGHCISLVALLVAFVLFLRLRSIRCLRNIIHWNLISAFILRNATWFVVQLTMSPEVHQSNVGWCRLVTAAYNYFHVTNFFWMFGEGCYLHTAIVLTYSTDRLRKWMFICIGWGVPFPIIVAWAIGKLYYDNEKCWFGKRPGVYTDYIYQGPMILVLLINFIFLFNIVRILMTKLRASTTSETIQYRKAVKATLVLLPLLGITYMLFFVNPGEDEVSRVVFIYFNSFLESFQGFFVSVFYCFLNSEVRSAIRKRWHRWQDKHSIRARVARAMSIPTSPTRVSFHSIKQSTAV

human CRFR1 [2] = biological target: T1, human CRFR1

Row | SMILES | inhibition at 0.5 µM (human CRFR1 [1]) | Ki (human CRFR1 [1]) | IC50 (human CRFR1 [2]) | Binding affinity fold lower than that of antalarmin (human CRFR1 [1]) | Times less potent than antalarmin to inhibit CRF-stimulated cAMP accumulation (human CRFR1 [2]; relative to antalarmin)
1 | CCCNc1nc(C)nc2c1sc(=S)n2-c1ccc(OC)cc1OC [5a, 3-(2,4-Dimethoxyphenyl)-5-methyl-7-(propylamino)thiazolo[4,5-d]pyrimidine-2(3H)-thione] | < 50% | – | – | – | –
2 | CCCCN(CC)c1nc(C)nc2c1c(C)c(C)n2-c1c(C)cc(C)cc1C [antalarmin, reference compound] | – | 0.0162 µM | 0.026 µM | – | –
3 | CCCCN(CCCC)c1nc(C)nc2c1sc(=S)n2-c1ccc(OC)cc1OC [5d, 7-(Dibutylamino)-3-(2,4-dimethoxyphenyl)-5-methylthiazolo[4,5-d]pyrimidine-2(3H)-thione] | > 50% | 0.0912 µM | – | 6 fold | –
4 | CCCCN(CC)c1nc(C)nc2c1sc(=S)n2-c1ccc(OC)cc1OC [5e, 7-(Butyl(ethyl)amino)-3-(2,4-dimethoxyphenyl)-5-methylthiazolo[4,5-d]pyrimidine-2(3H)-thione] | > 50% | 0.17 µM | – | 10 fold | –
5 | CCN(CC)c1nc(C)nc2c1sc(=S)n2-c1ccc(OC)cc1OC [5b, 7-(Diethylamino)-3-(2,4-dimethoxyphenyl)-5-methylthiazolo[4,5-d]pyrimidine-2(3H)-thione] | > 50% | 0.0845 µM | – | 5 fold | –

Second part, the molecule after the results:

Row | inhibition at 0.5 µM (human CRFR1 [1]) | Ki (human CRFR1 [1]) | IC50 (human CRFR1 [2]) | Binding affinity fold lower than that of antalarmin (human CRFR1 [1]) | Times less potent than antalarmin to inhibit CRF-stimulated cAMP accumulation (human CRFR1 [2]; relative to antalarmin) | SMILES
6 | < 50% | – | – | – | – | CCN(CC)c1nc(C)nc2c1sc(=O)n2-c1ccc(OC)cc1OC [8b, 7-(Diethylamino)-3-(2,4-dimethoxyphenyl)-5-methylthiazolo[4,5-d]pyrimidin-2(3H)-one]
7 | < 50% | – | – | – | – | CCCNc1nc(C)nc2c1sc(=O)n2-c1ccc(OC)cc1OC [8a, 3-(2,4-Dimethoxyphenyl)-5-methyl-7-(propylamino)thiazolo[4,5-d]pyrimidin-2(3H)-one]
8 | < 50% | – | – | – | – | CCCCN(CCCC)c1nc(C)nc2c1sc(=O)n2-c1ccc(OC)cc1OC [8d, 7-(Dibutylamino)-3-(2,4-dimethoxyphenyl)-5-methylthiazolo[4,5-d]pyrimidin-2(3H)-one]
9 | > 50% | 0.0321 µM | 2.15 µM | 2 fold | 100 times | CCCN(CCC)c1nc(C)nc2c1sc(=O)n2-c1ccc(OC)cc1OC [8c, 3-(2,4-Dimethoxyphenyl)-7-(dipropylamino)-5-methylthiazolo[4,5-d]pyrimidin-2(3H)-one]
